{
  "source": "patent US12539320B2",
  "about": "“Composition for improving eyesight” (South China Agricultural University, priority 2022, dated 2026)",
  "type_in_all_cases": "in vivo, BALB/c mice",
  "details_in_all_cases": "5 μL dripped into conjunctival sac 2 times a day for 15 days, mean (SD in next cell)",
  "key": {"mice with xerophthalmia [1]": {"system": "mice with xerophthalmia", "assay": "Measurement of breakup time of tear film (fluorescein sodium, slit lamp) in xerophthalmia mice", "protocol": "(§1) 1.1 Test animals: 100 SPF-grade 8-week-old healthy BALB/c mice, each weighed 18-22 g, were selected, and anterior segment and fundus of the eyes were not abnormal.\n(§2) 1.2. Establishment of animal model: 90 mice were selected to induce a model of xerophthalmia. 5 μL of 2 g/L of a benzalkonium chloride solution was dripped into conjunctival sac of the eyes of 90 mice for 2 times a day and continuously for 15 days. After the modeling was success, the mice were randomly divided into 9 groups with 10 mice in each group.\n(§3) 1.3. […] After 15 days, the secretion amount of tear, breakup time of a tear film, and the expression amount of conjunctival epithelial mucin MUC5AC were measured for the mice in each group.\n(2) Measurement of breakup time of tear film: 1 μL of 10 g/L of a fluorescein sodium solution was dripped into the conjunctival sac of the mouse, after the mouse blinked, the eyes were artificially kept in a normal opening state, and time for a tear film to generate the 1st black spot (breaking point) was observed and recorded under a cobalt blue light of a slit lamp."}, "mice with xerophthalmia [2]": {"system": "mice with xerophthalmia", "assay": "Measurement of secretion amount of tear (phenol red cotton thread) in benzalkonium chloride-induced xerophthalmia mice", "protocol": "as §1, §2, §3\n(1) Measurement of secretion amount of tear: a phenol red cotton thread was placed in the conjunctival sac of the mouse at about ⅓ outside for 1 min and a length of a red part of the phenol red cotton thread was measured."}, "[3]": {"system": "conjunctival epithelial mucin MUC5AC", "assay": "Expression amount of conjunctival epithelial mucin MUC5AC by Western Blot in xerophthalmia mice", "protocol": "as §1, §2, §3\n(3) Measurement of expression amount of conjunctival epithelial mucin MUC5AC: an expression level of the mucin MUC5AC in the conjunctival epithelial cells of the mouse was detected by Western Blot."}},
  "data": [
    {"substance": "lutein ester [Comparative example 3]", "values": [
      {"measurement": "Breakup time of tear film", "setting": "mice with xerophthalmia [1]", "result": 36.72, "unit": "s"},
      {"measurement": "Secretion amount of tear", "setting": "mice with xerophthalmia [2]", "result": 6.46, "unit": "mm"},
      {"measurement": "Expression amount of conjunctival epithelial mucin MUC5AC", "setting": "[3]", "result": 0.38, "unit": "ng/mg"}
    ]}
  ]
}
